Source: patent US20130323303A1, “DRUG CARRIER AND PREPARATION METHOD THEREOF” (NATIONAL CHIAO TUNG UNIVERSITY, priority 2012, published 2013)

Tested on: tumor (transplanted cancer cells carrying fluorescent gene)
Test: Animal tumor model, tumor size recorded via in vivo imaging system (IVIS)
Settings: mouse model, after 28 days of drug treatment
Protocol: Under the in vivo experiment of animal tumor model, first a mouse model treated with doxorubucin was prepared as the control group, and another mouse model treated with the oral drug carrier containing doxorubucin was prepared as the experimental group. After drug treatment, the mouse models were recorded the variation of tumor size via in vivo imaging system (IVIS) (because of the mice transplanted with the cancer cells carrying fluorescent gene).
FIG. 6A and 6B are […] of the experimental group that the mouse model was treated with drug at 0 day and after 28 days. The tumor size of the mouse model in the experimental group was 65% compared to before treatment. FIG. 6C and 6D are IVIS photos of the control group that the mouse model was treated with drug at 0 day and after 28 days. […] FIG. 7 is a variation graph in fluorescence values of tumor cells tested by IVIS, and the tumor cells were from the above mouse model treated with drug.

COc1cccc2c1C(=O)c1c(O)c3c(c(O)c1C2=O)C[C@@](O)(C(=O)CO)C[C@@H]3O[C@H]1C[C@H](N)[C@H](O)[C@H](C)O1 [doxorubucin, doxorubicin]
tumor size compared to before treatment: 200%
